Read-outs that look alike come from different tables or passages of the source.
Experiments:
AURKC = target: T1, AURKC (Homo sapiens, UniProt Q9UQB9); assay: NanoBRET assay in HEK293T cells; type: cell-based
T1 construct: full-length wild-type AURKA, AURKB, and AURKC were obtained as plasmids cloned in frame with a C-terminal NanoLuc-fusion; host or cells: HEK293T
T1 sequence (Q9UQB9 1-309): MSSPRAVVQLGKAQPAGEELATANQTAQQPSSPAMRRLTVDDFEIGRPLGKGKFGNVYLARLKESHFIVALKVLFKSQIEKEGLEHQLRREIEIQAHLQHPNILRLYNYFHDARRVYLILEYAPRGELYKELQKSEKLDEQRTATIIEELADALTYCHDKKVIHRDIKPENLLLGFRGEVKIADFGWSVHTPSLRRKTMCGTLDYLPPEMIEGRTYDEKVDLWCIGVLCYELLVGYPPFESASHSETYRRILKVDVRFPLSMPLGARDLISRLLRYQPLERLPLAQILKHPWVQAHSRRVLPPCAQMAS

MCD4 cells = assay: AQP2 redistribution, immunofluorescence microscopy; conditions: forskolin 30 µM, 30 min; for inhibition of the forskolin-induced redistribution of AQP2 to the plasma membrane: compound 30 µM, 1 h (Aurora-A inhibitor I 1-30 µM)
AKT3 = target: T2, AKT3 (Homo sapiens, UniProt Q9Y243); assay: Thermal shift assay; type: binding; conditions: read-out: ΔTm AKT3
T2 construct: purchased in-house thermal shift (DSF) kinase panel (SGC Frankfurt); Promega NanoBRET for AURKA/B/C
T2 sequence (Q9Y243 148-479): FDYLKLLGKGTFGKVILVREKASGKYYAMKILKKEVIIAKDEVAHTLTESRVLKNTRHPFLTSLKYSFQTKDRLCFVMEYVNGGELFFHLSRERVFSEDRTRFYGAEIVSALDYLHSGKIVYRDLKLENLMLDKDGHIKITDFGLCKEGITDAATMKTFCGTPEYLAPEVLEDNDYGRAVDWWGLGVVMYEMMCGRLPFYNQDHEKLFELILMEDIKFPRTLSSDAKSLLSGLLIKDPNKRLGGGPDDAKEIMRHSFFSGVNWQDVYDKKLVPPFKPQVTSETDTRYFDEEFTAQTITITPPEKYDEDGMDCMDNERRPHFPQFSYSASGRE

TTK = target: T3, TTK (Homo sapiens, UniProt P33981); assay: Thermal shift assay; type: binding; conditions: read-out: ΔTm TTK
T3 construct: purchased in-house thermal shift (DSF) kinase panel (SGC Frankfurt); Promega NanoBRET for AURKA/B/C
T3 sequence (P33981 519-808): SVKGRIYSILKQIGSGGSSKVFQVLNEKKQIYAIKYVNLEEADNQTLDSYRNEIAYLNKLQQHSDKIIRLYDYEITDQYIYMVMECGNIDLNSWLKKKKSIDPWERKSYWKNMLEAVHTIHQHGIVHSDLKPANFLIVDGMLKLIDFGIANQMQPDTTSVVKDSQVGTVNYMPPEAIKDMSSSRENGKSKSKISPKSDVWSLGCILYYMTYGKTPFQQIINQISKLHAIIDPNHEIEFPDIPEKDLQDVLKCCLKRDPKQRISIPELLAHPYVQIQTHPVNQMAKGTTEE

EPHA2 = target: T4, EPHA2 (Homo sapiens, UniProt P29317); assay: Thermal shift assay; type: binding; conditions: read-out: ΔTm EPHA2
T4 construct: purchased in-house thermal shift (DSF) kinase panel (SGC Frankfurt); Promega NanoBRET for AURKA/B/C
T4 sequence (P29317 596-900): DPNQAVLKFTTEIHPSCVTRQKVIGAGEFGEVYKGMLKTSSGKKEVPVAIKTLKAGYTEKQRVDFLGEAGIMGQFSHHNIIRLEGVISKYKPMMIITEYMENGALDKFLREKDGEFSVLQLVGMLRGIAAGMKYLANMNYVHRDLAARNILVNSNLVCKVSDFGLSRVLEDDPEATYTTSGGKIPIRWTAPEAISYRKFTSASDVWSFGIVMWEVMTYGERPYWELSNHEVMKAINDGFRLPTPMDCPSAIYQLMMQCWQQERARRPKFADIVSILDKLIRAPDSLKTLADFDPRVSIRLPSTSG

MAPK8 = target: T5, MAPK8 (Homo sapiens, UniProt P45983); assay: Thermal shift assay; type: binding; conditions: read-out: ΔTm MAPK8
T5 construct: purchased in-house thermal shift (DSF) kinase panel (SGC Frankfurt); Promega NanoBRET for AURKA/B/C
T5 sequence (P45983 1-364): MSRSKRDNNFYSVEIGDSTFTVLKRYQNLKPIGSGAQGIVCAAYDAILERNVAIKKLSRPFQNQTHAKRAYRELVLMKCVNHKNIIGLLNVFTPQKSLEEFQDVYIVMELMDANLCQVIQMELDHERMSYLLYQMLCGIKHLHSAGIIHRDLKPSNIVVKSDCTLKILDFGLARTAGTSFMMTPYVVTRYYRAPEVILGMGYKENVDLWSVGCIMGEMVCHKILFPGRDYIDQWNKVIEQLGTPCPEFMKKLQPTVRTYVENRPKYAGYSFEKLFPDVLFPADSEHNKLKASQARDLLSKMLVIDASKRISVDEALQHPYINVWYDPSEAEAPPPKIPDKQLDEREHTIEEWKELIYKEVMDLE

primary IMCD cells [1] = assay: F-actin stress fiber staining (phalloidin); type: cell-based, rat; conditions: compound 20 µM, 1 h
MAPK9 = target: T6, MAPK9 (Homo sapiens, UniProt P45984); assay: Thermal shift assay; type: binding; conditions: read-out: ΔTm MAPK9
T6 construct: purchased in-house thermal shift (DSF) kinase panel (SGC Frankfurt); Promega NanoBRET for AURKA/B/C
T6 sequence (P45984 whole entry): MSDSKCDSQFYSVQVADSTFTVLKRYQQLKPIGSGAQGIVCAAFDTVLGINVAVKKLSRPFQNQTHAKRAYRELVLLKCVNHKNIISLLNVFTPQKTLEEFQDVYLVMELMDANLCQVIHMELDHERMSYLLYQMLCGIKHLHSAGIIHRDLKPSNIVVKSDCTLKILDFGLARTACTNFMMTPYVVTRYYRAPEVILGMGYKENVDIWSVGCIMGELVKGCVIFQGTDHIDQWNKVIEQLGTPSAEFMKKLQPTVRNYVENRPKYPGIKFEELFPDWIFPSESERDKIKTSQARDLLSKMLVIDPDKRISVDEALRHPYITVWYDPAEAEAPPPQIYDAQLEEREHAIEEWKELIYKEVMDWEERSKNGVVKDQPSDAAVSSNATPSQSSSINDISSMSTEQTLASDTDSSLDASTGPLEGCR

primary IMCD cells [2] = assay: AQP2 redistribution, immunofluorescence microscopy; conditions: for inhibition of the AVP-induced redistribution of AQP2 to the plasma membrane: 1 h (Aurora-A inhibitor I 1-30 µM)
FES = target: T7, FES (Homo sapiens, UniProt P07332); assay: Thermal shift assay; type: binding; conditions: read-out: ΔTm FES
T7 construct: purchased in-house thermal shift (DSF) kinase panel (SGC Frankfurt); Promega NanoBRET for AURKA/B/C
T7 sequence (P07332 whole entry): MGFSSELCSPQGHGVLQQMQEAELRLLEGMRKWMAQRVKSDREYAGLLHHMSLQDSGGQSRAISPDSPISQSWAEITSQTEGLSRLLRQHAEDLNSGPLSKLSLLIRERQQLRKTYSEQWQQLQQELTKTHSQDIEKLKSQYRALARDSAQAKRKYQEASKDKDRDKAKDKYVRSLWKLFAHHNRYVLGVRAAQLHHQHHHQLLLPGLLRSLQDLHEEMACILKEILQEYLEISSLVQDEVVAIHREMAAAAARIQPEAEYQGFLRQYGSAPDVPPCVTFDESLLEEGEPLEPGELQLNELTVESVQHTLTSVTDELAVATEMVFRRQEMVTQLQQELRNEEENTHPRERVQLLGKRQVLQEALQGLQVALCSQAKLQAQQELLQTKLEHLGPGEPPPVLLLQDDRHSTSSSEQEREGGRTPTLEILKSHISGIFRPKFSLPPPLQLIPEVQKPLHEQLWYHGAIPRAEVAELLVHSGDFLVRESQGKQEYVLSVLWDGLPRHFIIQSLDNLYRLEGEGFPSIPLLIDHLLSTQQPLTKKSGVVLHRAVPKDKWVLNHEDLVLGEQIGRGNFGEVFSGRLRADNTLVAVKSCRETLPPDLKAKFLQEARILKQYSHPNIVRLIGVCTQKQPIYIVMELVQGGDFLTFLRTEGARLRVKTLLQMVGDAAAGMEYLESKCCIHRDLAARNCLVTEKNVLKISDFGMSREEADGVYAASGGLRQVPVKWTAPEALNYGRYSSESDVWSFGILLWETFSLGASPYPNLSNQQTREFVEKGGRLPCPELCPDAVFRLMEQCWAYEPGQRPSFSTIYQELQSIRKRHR

BMX = target: T8, BMX (Homo sapiens, UniProt P51813); assay: Thermal shift assay; type: binding; conditions: read-out: ΔTm BMX
T8 construct: purchased in-house thermal shift (DSF) kinase panel (SGC Frankfurt); Promega NanoBRET for AURKA/B/C
T8 sequence (P51813 411-675): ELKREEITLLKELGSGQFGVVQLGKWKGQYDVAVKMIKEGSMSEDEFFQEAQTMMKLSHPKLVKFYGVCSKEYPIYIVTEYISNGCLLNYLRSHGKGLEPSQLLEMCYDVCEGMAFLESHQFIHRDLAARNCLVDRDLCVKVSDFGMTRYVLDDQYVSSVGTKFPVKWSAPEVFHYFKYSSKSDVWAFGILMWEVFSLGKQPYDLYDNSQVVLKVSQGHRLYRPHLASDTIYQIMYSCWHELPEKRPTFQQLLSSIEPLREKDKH

AURKB = AURKB (Homo sapiens, UniProt Q96GD4); assay: Thermal shift assay; type: binding; set-up: full-length wild-type AURKA, AURKB, and AURKC were obtained as plasmids cloned in frame with a C-terminal NanoLuc-fusion; conditions: read-out: ΔTm AURKB
Sequence of AURKB (Q96GD4 whole entry, the tested form may be a part): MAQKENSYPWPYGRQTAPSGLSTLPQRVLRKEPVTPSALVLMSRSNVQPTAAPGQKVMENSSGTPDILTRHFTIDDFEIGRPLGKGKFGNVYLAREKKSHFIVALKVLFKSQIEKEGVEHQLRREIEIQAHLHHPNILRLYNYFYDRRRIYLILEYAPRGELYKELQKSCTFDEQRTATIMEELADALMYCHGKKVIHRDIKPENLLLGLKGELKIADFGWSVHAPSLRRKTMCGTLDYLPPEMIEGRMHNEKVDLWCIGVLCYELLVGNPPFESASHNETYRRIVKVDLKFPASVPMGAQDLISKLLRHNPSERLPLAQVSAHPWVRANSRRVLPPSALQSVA

PHKG2 = target: T9, PHKG2 (Homo sapiens, UniProt P15735); assay: Thermal shift assay; type: binding; conditions: read-out: ΔTm PHKG2
T9 construct: purchased in-house thermal shift (DSF) kinase panel (SGC Frankfurt); Promega NanoBRET for AURKA/B/C
T9 sequence (P15735 6-293): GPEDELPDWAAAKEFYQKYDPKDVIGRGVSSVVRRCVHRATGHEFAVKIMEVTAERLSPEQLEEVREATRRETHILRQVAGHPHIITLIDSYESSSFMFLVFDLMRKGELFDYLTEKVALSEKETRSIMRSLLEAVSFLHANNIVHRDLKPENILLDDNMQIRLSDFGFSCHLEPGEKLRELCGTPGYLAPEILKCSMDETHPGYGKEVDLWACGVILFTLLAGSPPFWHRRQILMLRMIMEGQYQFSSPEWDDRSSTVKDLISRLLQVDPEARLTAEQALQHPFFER

CLK1 = target: T10, CLK1 (Homo sapiens, UniProt P49759); assay: Thermal shift assay; type: binding; conditions: read-out: ΔTm CLK1
T10 construct: purchased in-house thermal shift (DSF) kinase panel (SGC Frankfurt); Promega NanoBRET for AURKA/B/C
T10 sequence (P49759 148-484): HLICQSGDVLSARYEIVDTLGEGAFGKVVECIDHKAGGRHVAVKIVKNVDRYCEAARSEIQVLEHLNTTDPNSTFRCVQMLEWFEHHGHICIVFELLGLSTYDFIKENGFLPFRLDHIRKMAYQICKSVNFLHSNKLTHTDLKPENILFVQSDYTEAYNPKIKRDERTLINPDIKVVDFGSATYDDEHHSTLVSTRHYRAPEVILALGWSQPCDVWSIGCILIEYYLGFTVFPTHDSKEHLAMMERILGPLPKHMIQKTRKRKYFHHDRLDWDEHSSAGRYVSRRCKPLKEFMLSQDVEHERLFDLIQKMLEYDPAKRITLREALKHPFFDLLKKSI

STK10 = target: T11, STK10 (Homo sapiens, UniProt O94804); assay: Thermal shift assay; type: binding; conditions: read-out: ΔTm STK10
T11 construct: purchased in-house thermal shift (DSF) kinase panel (SGC Frankfurt); Promega NanoBRET for AURKA/B/C
T11 sequence (O94804 18-317): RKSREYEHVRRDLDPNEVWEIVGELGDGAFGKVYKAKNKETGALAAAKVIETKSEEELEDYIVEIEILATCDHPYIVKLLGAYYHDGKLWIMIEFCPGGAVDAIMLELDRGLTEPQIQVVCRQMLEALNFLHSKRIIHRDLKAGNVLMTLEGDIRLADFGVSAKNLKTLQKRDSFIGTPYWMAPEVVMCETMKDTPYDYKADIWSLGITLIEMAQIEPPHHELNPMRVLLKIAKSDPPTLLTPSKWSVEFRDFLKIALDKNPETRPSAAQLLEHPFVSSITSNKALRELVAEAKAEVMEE

FGFR2 = target: T12, FGFR2 (Homo sapiens, UniProt P21802); assay: Thermal shift assay; type: binding; conditions: read-out: ΔTm FGFR2
T12 construct: purchased in-house thermal shift (DSF) kinase panel (SGC Frankfurt); Promega NanoBRET for AURKA/B/C
T12 sequence (P21802 458-768): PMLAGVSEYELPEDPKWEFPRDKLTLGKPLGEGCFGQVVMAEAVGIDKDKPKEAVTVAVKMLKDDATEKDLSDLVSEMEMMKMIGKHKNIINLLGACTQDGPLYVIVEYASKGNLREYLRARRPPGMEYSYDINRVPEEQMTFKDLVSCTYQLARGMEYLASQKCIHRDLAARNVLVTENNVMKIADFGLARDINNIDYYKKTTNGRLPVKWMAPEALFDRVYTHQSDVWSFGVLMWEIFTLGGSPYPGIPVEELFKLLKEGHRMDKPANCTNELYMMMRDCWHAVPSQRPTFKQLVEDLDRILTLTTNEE

[3] = compound 20 µM, AVP 100 nM, 30 min
[4] = NanoBRET, n = 2, mean, Figure 6B, read-out: affinity to intracellular AURKC

Compound	inhibition of the forskolin-induced redistribution of AQP2 to the plasma membrane (MCD4 cells)	effect on actin stress fibers (primary IMCD cells [1])	inhibition of the AVP-induced redistribution of AQP2 to the plasma membrane (primary IMCD cells [2]; [3])	IC50 (AURKC; [4])	ΔTm at 10 µM (AKT3; compound 10 µM, n = 3)	ΔTm at 10 µM (TTK; compound 10 µM, n = 3)	ΔTm at 10 µM (EPHA2; compound 10 µM, n = 3)	ΔTm at 10 µM (MAPK8; compound 10 µM, n = 3)	ΔTm at 10 µM (MAPK9; compound 10 µM, n = 3)	ΔTm at 10 µM (FES; compound 10 µM, n = 3)	ΔTm at 10 µM (BMX; compound 10 µM, n = 3)	ΔTm at 10 µM (AURKB; compound 10 µM, n = 3)	ΔTm at 10 µM (PHKG2; compound 10 µM, n = 3)	ΔTm at 10 µM (CLK1; compound 10 µM, n = 3)	ΔTm at 10 µM (STK10; compound 10 µM, n = 3)	ΔTm at 10 µM (FGFR2; compound 10 µM, n = 3)	also measured
CCN1CCN(C(=O)Cc2ccc(Nc3ncc(F)c(Nc4ccc(C(=O)Nc5ccccc5Cl)cc4)n3)cc2)CC1 [Aurora-A inhibitor I, reference compound]	inhibits	depolymerization of actin stress fibers	inhibits	–	–	–	–	–	–	–	–	–	–	–	–	–	IC50 (AURKC): > 50 µM; effective concentration for inhibition of AQP2 redistribution (MCD4 cells; 1, 10 or 30 µM, 1 h): greater than 1 µM; ΔTm at 10 µM (AKT3): 0.2 °C; ΔTm at 10 µM (TTK): 1.9 °C; ΔTm at 10 µM (EPHA2): 1.4 °C; ΔTm at 10 µM (MAPK8): 3.7 °C; ΔTm at 10 µM (MAPK9): 2.9 °C; effective concentration for inhibition of AQP2 redistribution (primary IMCD cells [2]; 1, 10 or 30 µM, 1 h, AVP 100 nM, 30 min): greater than 1 µM; ΔTm at 10 µM (FES): 1.4 °C; ΔTm at 10 µM (BMX): 2.1 °C; ΔTm at 10 µM (AURKB): -0.5 °C; ΔTm at 10 µM (PHKG2): 0.7 °C; ΔTm at 10 µM (CLK1): 1.5 °C; ΔTm at 10 µM (STK10): 3.8 °C; ΔTm at 10 µM (FGFR2): 2.5 °C
O=C(Cc1ccc(Nc2ncc(F)c(Nc3ccc(C(=O)Nc4ccccc4Cl)cc3)n2)cc1)NCCN1CCOCC1 [ERJ2-04]	not different from that in cells treated with the compound solvent, DMSO	Comparable effects	no significant difference between resting and AVP-stimulated cells	44.5 µM	-0.1 °C	1.8 °C	0.3 °C	3.2 °C	1.9 °C	0.5 °C	1.5 °C	-0.8 °C	0.3 °C	0.4 °C	0.6 °C	1.5 °C	–
NC(=O)Cc1ccc(Nc2ncc(F)c(Nc3ccc(C(=O)Nc4ccccc4Cl)cc3)n2)cc1 [ERJ2-06]	–	Comparable effects	no significant difference between resting and AVP-stimulated cells	12 µM	0.1 °C	2.4 °C	0.8 °C	3.7 °C	2.9 °C	1.4 °C	2.1 °C	0.5 °C	0.9 °C	1.7 °C	1.4 °C	2.4 °C	–
CCN1CCN(C(=O)Cc2ccc(Nc3ncc(F)c(Nc4ccc(C(=O)Nc5ccccc5)cc4)n3)cc2)CC1 [ERJ2-11]	–	promoted or maintained the formation of actin stress fibers	no significant difference between resting and AVP-stimulated cells	46 µM	0.1 °C	2.2 °C	1.8 °C	3.8 °C	2.8 °C	1.7 °C	2.7 °C	-0.2 °C	0.8 °C	1.5 °C	4.8 °C	2.9 °C	AQP2 fluorescence intensity ratio compared to DMSO-treated control cells (primary IMCD cells [2]; compound 20 µM, 1 h): significant decrease
CCN1CCN(C(=O)Cc2ccc(Nc3ncc(F)c(Nc4ccc(C(=O)O)cc4)n3)cc2)CC1 [ERJ2-12]	not different from that in cells treated with the compound solvent, DMSO	resembled those of the control cells	significantly differed	–	-0.1 °C	0.6 °C	1.6 °C	4.2 °C	3 °C	0.4 °C	0.9 °C	-2.5 °C	0.2 °C	0.5 °C	2.2 °C	2.9 °C	IC50 (AURKC; NanoBRET, n = 2, Figure 6B, bounds, read-out: affinity to intracellular AURKC): > 50 µM
